US9939427B2, “Method for evaluating the scent performance of perfumes or perfume mixtures” (Symrise AG, priority 2013, dated 2018)
Entries after “also recorded” stand apart in the source; their conditions may differ.

Assays:
OR4C16 = target: T1, OR4C16 (Homo sapiens, UniProt Q8NGL9); experiment: Ca-imaging of OR4C16-transfected HEK293 cells; format: cell-based; set-up: key to OR4C16 responded to odorant: ▪: 18 olfactory receptors responded to 32 odorants in related with specific anosmia
T1 construct: specific primers, which amplify the complete open reading frame; expressed in transfected cells; host or cells: HEK293
T1 sequence (Q8NGL9 whole entry): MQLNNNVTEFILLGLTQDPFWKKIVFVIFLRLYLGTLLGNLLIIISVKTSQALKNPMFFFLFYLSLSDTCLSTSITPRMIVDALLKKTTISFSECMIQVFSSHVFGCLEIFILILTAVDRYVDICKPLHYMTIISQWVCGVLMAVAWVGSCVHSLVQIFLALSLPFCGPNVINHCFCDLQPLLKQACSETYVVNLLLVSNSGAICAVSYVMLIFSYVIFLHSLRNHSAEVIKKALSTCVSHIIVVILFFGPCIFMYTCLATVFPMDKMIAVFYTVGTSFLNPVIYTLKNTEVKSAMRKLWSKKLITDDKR
Method: (§1) HEK293 cells were cultivated in Petri dishes (Ø35 mm) as previously described (Benbernou et al. 2007). We grow up HEK293 cells in culture medium containing standard DMEM with 10% heat-inactivated fetal bovine serum, 2 mM L-glutamine, 100 units/ml penicillin, and 100 units/ml streptomycin in a humidified atmosphere (37° C., 5% CO2). After 2-3 days, the transfection process was carried out, whereby the cell culture was 70-80% confluent. The calciumphosphate method was applied to transfect DNA plasmid transiently in HEK293 cells in case of Ca-imaging method.
(§2) Calcium cations and phosphate anions created crystal precipitations coupled with DNA which could invade into the cells through endocytosis. […]
(§3) Calcium imaging of the transfected HEK293 cells was done by using chambers determinate an inverted microscope (Olympus; IX70) using a 10× objective (CPIanFL N Olympus). Fluorescence emission was determined every 4 s by using a CCD camera (Charge Coupled Device, C9100 Hamamatsu). […] Odorants were manually monitored to drop each 4-5 s to transfected cells. […]
(§4) In experiments, Fura-2 Acetoxymethylester (Fura-2/AM) was applied. […] According to this feature, the analysis of 340/380 nm excitation ratio for Fura-2 allows to quantify intracellular calcium levels. […]

OR5L1 = target: T2, OR5L1 (Homo sapiens, UniProt Q8NGL2); experiment: Ca-imaging of OR5L1-transfected HEK293 cells; format: cell-based; set-up: key: ▪: 18 olfactory receptors responded to 32 odorants in related with specific anosmia; conditions: individual odorant 200 μM, significant response p<0.05
T2 construct: specific primers, which amplify the complete open reading frame; expressed in transfected cells; host or cells: HEK293
T2 sequence (Q8NGL2 whole entry): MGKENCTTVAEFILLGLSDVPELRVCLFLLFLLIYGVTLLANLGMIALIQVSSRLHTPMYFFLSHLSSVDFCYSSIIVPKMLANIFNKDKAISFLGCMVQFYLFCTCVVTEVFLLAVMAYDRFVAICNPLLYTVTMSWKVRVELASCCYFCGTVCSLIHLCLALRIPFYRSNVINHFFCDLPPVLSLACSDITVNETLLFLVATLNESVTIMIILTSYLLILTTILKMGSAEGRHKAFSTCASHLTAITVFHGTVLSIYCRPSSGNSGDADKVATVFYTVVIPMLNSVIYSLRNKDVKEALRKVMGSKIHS
Method: as §1, §2, §3, §4

OR1B1 = target: T3, OR1B1 (Homo sapiens, UniProt Q8NGR6); experiment: Ca-imaging of OR1B1-transfected HEK293 cells; format: cell-based; set-up: key to OR1B1 responded to odorant: ▪: 18 olfactory receptors responded to 32 odorants in related with specific anosmia; conditions: for Number of cell responses of OR1B1 (FIG. 8): 200 μM, approximately 2000 cells in three times of measuring, steroid comparison; for Response of OR1B1 to odorant, in words: single odorants 200 μM; for Number of cell responses, Experiment (OR1B1): odorant 200 μM, approximately 2000 transfected cells in three times of measuring (Table 4, FIG. 5)
T3 construct: specific primers, which amplify the complete open reading frame; expressed in transfected cells; host or cells: HEK293
T3 sequence (Q8NGR6 1-317): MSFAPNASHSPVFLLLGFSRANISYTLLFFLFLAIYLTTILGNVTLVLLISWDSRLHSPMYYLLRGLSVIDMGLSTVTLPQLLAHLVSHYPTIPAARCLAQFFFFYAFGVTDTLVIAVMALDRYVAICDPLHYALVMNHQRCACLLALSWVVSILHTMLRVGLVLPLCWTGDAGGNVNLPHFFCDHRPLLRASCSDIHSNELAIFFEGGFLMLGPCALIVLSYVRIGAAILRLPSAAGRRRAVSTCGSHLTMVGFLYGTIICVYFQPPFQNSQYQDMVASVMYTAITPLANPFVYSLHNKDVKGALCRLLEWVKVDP
Method: as §1
(§5) Calcium cations and phosphate anions created crystal precipitations coupled with DNA which could invade into the cells through endocytosis. Cells were transiently transfected with plasmid DNA which consists of pCI expression vector and PCR-amplified full-length cDNA of olfactory receptors candidates, and also Gα15, RTP1, Myr-Ric8A, HSC70, and m-Cherry as cofactors. The precipitation could be created after 15-20 min, with dropping the transfection solution on HEK293 cells. Before measuring by Ca-imaging cells were incubated 48-60 hours at 370 C, 5% CO2. Cationic liposome-mediated transfection method was applied to transfect DNA plasmid transiently in HANA3A cells in case of CRE-Luciferase and CRE-SEAP assays.
(§6) Calcium imaging of the transfected HEK293 cells was done by using chambers determinate an inverted microscope (Olympus; IX70) using a 10× objective (CPIanFL N Olympus). Fluorescence emission was determined every 4 s by using a CCD camera (Charge Coupled Device, C9100 Hamamatsu). The capillary tube which was responsible to supply odorants was generated closely above the cells. The columns filled with odorants, DMSO and ATP. Odorants were manually monitored to drop each 4-5 s to transfected cells. Solutions with drop wise form spread on HEK293 cells in 35 mm dishes.
(§7) In experiments, Fura-2 Acetoxymethylester (Fura-2/AM) was applied. The non-polar Fura2/AM is fluorescent but not yet calcium-sensitive. Once diffuses into cell plasma, Fura-2/AM is hydrolyzed to Fura-2 which is calcium-sensitive and functions as Ca2+ chelator. Regardless of the presence of calcium, Fura-2 emits at the wavelength of 510 nm. Once Fura-2 binds to free intracellular Ca2+ in cell plasma, its ratio of excitation at wavelengths of 340 nm and 380 nm is changed and correlated to the amount of intracellular Ca2+. According to this feature, the analysis of 340/380 nm excitation ratio for Fura-2 allows to quantify intracellular calcium levels.
(§8) In preparation for Ca-imaging measurements, transfected HEK293 cells were added 3 it Fura2/AM (3 μM) and incubated 30-45 min at 370 C, 5% CO2. After this step, experiments were carried out in a dark condition (Fura-2 is light-sensitive). After the incubation, medium of cell culture was replaced with 2 ml Ringer's solution.
(§9) Odorants were freshly prepared with DMSO as 1 M stocks solutions. Six mixtures (200 μM each chemical) were applied to cells sequentially (20 s each mixture/30 s Ringer). Those ORs tested with single odorants that had generated a response to odorant mixture group previously. Odorants were prepared in 100-200 μM concentration.
(§10) Ringer's solution was used for washing cells between measuring by two different odorants. Positive response was determined by the timing of the response, the strength of the response (more than twofold higher than the noise amplitude of the baseline), and the shape of the response curve (sharp rise in curve with gradual recovery). The typical shape of response curves was established by observing responses to repeated stimulation with 200 μM of odorants. After testing with single odorants at 100 μM, stimulating odorants were often retested at 200 μM concentrations. To confirm the result of every receptor that produced a significant response curves, the experiment was repeated for twelve times. Finally, cells were exposed to ATP (0.25 mM) which could activate P2Y receptor channel and induce Ca2+ influx into cells. […]

[1] = tested on: HEK293 cells transfected with all cofactors and pCI plasmids without ORs; experiment: Ca-imaging of control HEK293 cells without OR; format: cell-based; conditions: for Number of cell responses in controls (FIG. 8, 11, 12): 200 μM, steroid comparison
Method: as §1, §5, §6, §7, §8, §9, §10

OR1B1-574 = target: T4, OR1B1-574 (Homo sapiens, UniProt Q8NGR6); experiment: Ca-imaging of mutant OR1B1-574 in HEK293 cells; format: cell-based; conditions: 200 μM, applied for 20 seconds
T4 construct: Rho-tag (N); expressed in transfected cells; host or cells: HEK293
Excerpt: (§11) Mutations were introduced for OR1B1 and OR10Q1 by Overlap Extension PCR (OEP). […] Flanking primers in combination with internal primers provided mutated gene segments, Full length primers included EcoRI and NotI restriction sites for further cloning into pCI expression vector. Site-directed mutations were selected for base of minor allele frequency of nucleotide.
(§12) In mutagenesis by overlap extension PCR method, initial PCRs provided mutated gene segments, with overlapping complementary 3′ ends carrying desired point mutation that were then mixed and used as template for a subsequent PCR to generate the full-length product. Overlapping strands of these intermediate products hybridize at this 3′ region in a subsequent PCR and are extended to generate the full-length product amplified by flanking primers; this shown in FIG. 2. […]
as §3, §4

OR1B1-688 = experiment: Ca-imaging of mutant OR1B1-688 in HEK293 cells; format: cell-based, human; conditions: 200 μM, applied for 20 seconds
Excerpt: as §11, §12, §3, §4

OR1B1-789 = target: T5, OR1B1-789 (Homo sapiens, UniProt Q8NGR6, C262W); experiment: Ca-imaging of mutant OR1B1-789 in HEK293 cells; format: cell-based; conditions: 200 μM, applied for 20 seconds
T5 construct: Full length primers included EcoRI and NotI restriction sites for further cloning into pCI expression vector; Rho-tag (N); expressed in transfected cells; host or cells: HEK293
T5 sequence (Q8NGR6 whole entry C262W): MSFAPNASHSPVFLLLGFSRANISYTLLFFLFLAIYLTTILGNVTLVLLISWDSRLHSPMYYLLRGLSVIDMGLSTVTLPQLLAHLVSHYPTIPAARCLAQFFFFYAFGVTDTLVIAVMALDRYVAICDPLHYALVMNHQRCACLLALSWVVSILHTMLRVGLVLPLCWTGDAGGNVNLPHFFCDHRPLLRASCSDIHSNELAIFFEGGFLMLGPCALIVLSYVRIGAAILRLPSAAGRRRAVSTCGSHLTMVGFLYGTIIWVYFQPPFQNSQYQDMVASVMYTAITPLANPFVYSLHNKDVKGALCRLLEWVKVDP
Excerpt: as §11, §12, §3, §4

OR4C3 = target: T6, OR4C3 (Homo sapiens, UniProt Q8NH37); experiment: Ca-imaging of OR4C3-transfected HEK293 cells; format: cell-based; set-up: key: ▪: 18 olfactory receptors responded to 32 odorants in related with specific anosmia; conditions: individual odorant 200 μM, significant response p<0.05
T6 construct: specific primers, which amplify the complete open reading frame; expressed in transfected cells; host or cells: HEK293
T6 sequence (Q8NH37 whole entry): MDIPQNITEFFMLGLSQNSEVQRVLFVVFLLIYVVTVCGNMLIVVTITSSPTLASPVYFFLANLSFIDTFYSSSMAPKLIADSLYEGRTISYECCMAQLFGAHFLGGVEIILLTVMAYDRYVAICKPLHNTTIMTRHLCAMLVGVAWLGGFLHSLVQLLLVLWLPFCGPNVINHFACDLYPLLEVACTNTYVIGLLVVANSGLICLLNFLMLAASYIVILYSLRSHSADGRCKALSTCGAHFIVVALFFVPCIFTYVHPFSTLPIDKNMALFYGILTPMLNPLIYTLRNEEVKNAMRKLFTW
Method: as §1, §2, §3, §4

OR10C1 = target: T7, OR10C1 (Homo sapiens, UniProt Q96KK4); experiment: Ca-imaging of OR10C1-transfected HEK293 cells; format: cell-based; set-up: key: ▪: 18 olfactory receptors responded to 32 odorants in related with specific anosmia; conditions: individual odorant 200 μM, significant response p<0.05
T7 construct: specific primers, which amplify the complete open reading frame; expressed in transfected cells; host or cells: HEK293
T7 sequence (Q96KK4 whole entry): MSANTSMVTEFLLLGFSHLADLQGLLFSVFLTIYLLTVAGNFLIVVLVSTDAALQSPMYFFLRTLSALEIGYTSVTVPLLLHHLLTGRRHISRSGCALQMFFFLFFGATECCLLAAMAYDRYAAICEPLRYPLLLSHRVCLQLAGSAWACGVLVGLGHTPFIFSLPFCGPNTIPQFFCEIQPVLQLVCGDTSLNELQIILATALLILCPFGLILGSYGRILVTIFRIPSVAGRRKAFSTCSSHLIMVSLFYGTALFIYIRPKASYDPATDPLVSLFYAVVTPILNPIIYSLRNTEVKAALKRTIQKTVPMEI
Method: as §1, §2, §3, §4

OR5I1 = target: T8, OR5I1 (Homo sapiens, UniProt Q13606); experiment: Ca-imaging of OR5I1-transfected HEK293 cells; format: cell-based; set-up: key to OR5I1 responded to odorant: ▪: 18 olfactory receptors responded to 32 odorants in related with specific anosmia
T8 construct: specific primers, which amplify the complete open reading frame; expressed in transfected cells; host or cells: HEK293
T8 sequence (Q13606 whole entry): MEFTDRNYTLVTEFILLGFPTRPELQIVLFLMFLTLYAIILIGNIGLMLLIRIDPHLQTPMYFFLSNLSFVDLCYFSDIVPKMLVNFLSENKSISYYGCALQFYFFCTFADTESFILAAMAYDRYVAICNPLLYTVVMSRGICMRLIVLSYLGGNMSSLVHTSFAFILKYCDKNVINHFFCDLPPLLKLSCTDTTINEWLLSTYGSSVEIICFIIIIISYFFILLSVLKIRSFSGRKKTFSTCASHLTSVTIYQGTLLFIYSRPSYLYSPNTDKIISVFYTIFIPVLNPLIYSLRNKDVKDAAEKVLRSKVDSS
Method: as §1, §2, §3, §4

[2] = HEK293 cells, individual odorant 200 μM, significant response p<0.05

CCCCCC1CCC(=O)O1 (centres unmarked) [Aldehyde C18]
OR4C16 responded to odorant (OR4C16; [2]): ▪ | Response of OR4C16 to odorant, in words (OR4C16; single odorants 200 μM): responded | OR5L1 responded to odorant (OR5L1): ▪

C[C@]12CCC(=O)C[C@@H]1CC[C@@H]1[C@@H]2CC[C@]2(C)C=CC[C@@H]12 [Androstenon, 5α-Androst-16-en-3-one]
Number of cell responses of OR1B1 (FIG. 8) (OR1B1): 13 | OR1B1 responded to odorant (OR1B1; Ca-imaging, HEK293 cells, individual odorant 200 μM, significant response p<0.05): ▪ | Response of OR1B1 to odorant, in words (OR1B1; Ca-imaging, listed as androstenone): significantly (P<0.05) activated; also recorded: responded | Number of cell responses, Experiment (OR1B1) (OR1B1; listed as Andorestenone): 20 | Number of cell responses, Experiment (OR1B1) (OR1B1; listed as androstenone): 35 | Number of cell responses in controls (FIG. 8, 11, 12) [1]: 3 | Number of cell responses, Control ([1]; odorant 200 μM, three times of measuring (Table 4, FIG. 5)): 0 | Response of OR1B1-574 in comparison to OR1B1 WT (OR1B1-574): not able to reproduce responses | Response of OR1B1-688 in comparison to OR1B1 WT (OR1B1-688; listed as androstenone): no significantly different responses; also recorded: did not show any significant difference | Response of OR1B1-789 in comparison to OR1B1 WT (OR1B1-789; listed as androstenone): no significantly different responses; also recorded: did not show any significant difference

C/C=C/C(=O)C1=C(C)CCCC1(C)C [B-Damascone, β-Damascone]
OR5L1 responded to odorant (OR5L1): ▪ | OR4C3 responded to odorant (OR4C3): ▪

CCCCCC1C(=O)CCC1CC(=O)OC (centres unmarked) [Hedione, Hedion]
OR10C1 responded to odorant (OR10C1): ▪

CC(C)CCC(=O)O [Isocaproic acid]
OR4C3 responded to odorant (OR4C3): ▪

CCCCCCCC=O [Octanal]
OR5I1 responded to odorant (OR5I1; [2]): ▪ | Response of OR5I1 to odorant, in words (OR5I1; single odorants 200 μM): responded

CCC(C)=O [Odorant 2-butanone, 2-Butanone]
OR10C1 responded to odorant (OR10C1): ▪

C[C@]12CC[C@H]3[C@@H](CCC4=CC(=O)CC[C@@]43C)[C@@H]1CC[C@@H]2O [testosterone]
Number of cell responses of OR1B1 (FIG. 8) (OR1B1): 12 | Response of OR1B1 to odorant, in words (OR1B1; Ca-imaging): responded | Number of cell responses in controls (FIG. 8, 11, 12) [1]: 1 | Response of OR1B1-574 in comparison to OR1B1 WT (OR1B1-574): not able to reproduce responses | Response of OR1B1-688 in comparison to OR1B1 WT (OR1B1-688): no significantly different responses; also recorded: did not show any significant difference | Response of OR1B1-789 in comparison to OR1B1 WT (OR1B1-789): no significantly different responses; also recorded: did not show any significant difference
